Data: US6416783B1, “Aspartic and malic acid inhibition of ss-glucuronidase” (Wisconsin Alumni Research Foundation, priority 1999, dated 2002)
Values joined by “and” are separate entries in the source; they are usually repeats but may differ in a detail not shown here. Identical values can stand only once. Like-named read-outs stand apart in the source and are kept apart here. One block for each compound: values may come before it.

Assays:
β-glucuronidase = target: T1, β-glucuronidase (Homo sapiens, UniProt P08236); experiment: Standard Test: β-glucuronidase activity of human breast milk with MUG substrate (fluorescence); type: biochemical; conditions: Example 3; for mean (X̄) activity: mean of 3; for Activity (pmole/tube/hr): single replicates
T1 construct: We used human breast milk collected and pooled from a newborn nursery as the β-glucuronidase source; from tissue
T1 sequence (P08236 23-651): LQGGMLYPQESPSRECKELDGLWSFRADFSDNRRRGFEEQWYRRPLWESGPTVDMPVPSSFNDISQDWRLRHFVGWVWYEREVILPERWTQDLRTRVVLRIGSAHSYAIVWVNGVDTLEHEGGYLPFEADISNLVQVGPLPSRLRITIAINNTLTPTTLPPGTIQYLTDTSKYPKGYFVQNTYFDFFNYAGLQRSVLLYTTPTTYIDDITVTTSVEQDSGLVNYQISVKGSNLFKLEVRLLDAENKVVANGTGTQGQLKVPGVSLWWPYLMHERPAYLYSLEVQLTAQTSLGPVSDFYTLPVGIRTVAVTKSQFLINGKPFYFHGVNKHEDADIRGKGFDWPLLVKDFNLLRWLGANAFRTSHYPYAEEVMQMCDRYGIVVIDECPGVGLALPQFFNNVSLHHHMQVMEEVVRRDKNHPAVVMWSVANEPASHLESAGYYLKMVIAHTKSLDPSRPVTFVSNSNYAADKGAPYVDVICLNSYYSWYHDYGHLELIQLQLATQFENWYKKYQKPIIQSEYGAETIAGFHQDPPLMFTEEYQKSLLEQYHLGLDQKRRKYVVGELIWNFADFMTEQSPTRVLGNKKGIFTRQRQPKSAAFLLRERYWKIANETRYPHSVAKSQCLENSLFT
Method: We first developed a standard assay procedure (the “Standard Test”). We used human breast milk collected and pooled from a newborn nursery as the β-glucuronidase source. The samples were stored at −20° C. The milk was thawed and diluted 10× with 0.2 M sodium acetate/glacial acetic acid (NaAC) buffer pH 4.5 just prior to being used. A 4.0 mM stock solution of 4-methylumbelliferyl β-D-glucuronide (MUG, Sigma M-9130 lot#75H3777) was prepared in 0.2 M NaAC buffer pH 4.5.
Triplicate test and blank tubes contained a reaction mixture consisting of 50 μL diluted breast milk and 50 μL of an inhibitor solution diluted with 0.2 M NaAC buffer pH 4.5. Controls were prepared that contained only 50 μL diluted breast milk and 50 μL 0.2 M NaAC buffer pH 4.5. The assay was started by adding 25 μl of the MUG (4.0 mM, 0.800 mM final concentration) to the test sample to start the reaction. The final volume of the reaction was 125 μL. Both blank and test samples were vortexed and incubated at 37° C. for 1 hour (or for shorter times if indicated).
The reaction was quenched in both the test and blank samples with 3.0 ml of glycine-carbonate (320 mM: 200 mM) buffer pH 10.0. The blank samples had 25 μl of the MUG (4.0 mM, 0.800 mM final) added to them and all tubes were vortexed.
The resulting fluorescence was read using a Perkin Elmer LS5-B fluorescence spectrophotometer (360 nm excitation, 445 nm emission, autorange scale). The amount of 4-methylumbelliferone (4-MU) released by the β-glucuronidase was calculated using a 4-MU quadratic standard curve and the Mathplot software. The velocity was calculated as pmoles of 4-MU formed per hour per ml undiluted breast milk.
We diluted pooled breast milk 20× with 0.2 M NaAC buffer pH 4.5. We diluted 2.2% w/v solution of Amicase (Sigma Cat. #A2427—a mixture of free amino acids with virtually no unhydrolyzed peptides, only minimal inorganic components are present, total nitrogen ˜12.8%, amino nitrogen ˜9.8%) with buffer 5×. We then incubated 50 μl milk with 50 μl buffer and Amicase. We then added 25 μl MUG to start the reaction. We then quenched with Na-carbonate buffer pH 10.0 and read fluorescence at 360 nm ex 445 nm em. Autorange scale. The mixture of amino acids was compared to controls and Nutramigen® as follows:
We then studied the effect of specific amino acid mixtures on β-glucuronidase activity. We diluted pooled breast milk 10× with 0.2 M NaAC buffer pH 4.5 and diluted 50×stock essential amino acid solution (Sigma Cat #M7020=L-arginine.HCl 6.32 g/L, L-cystine 1.2 g/L, L-histidine.HCl.H20 2.1 g/L, L-isoleucine 2.625 g/L, L-leucine 2.62 g/L, L-lyscine.HCl 3.625 g/L, L-methionine 0.755 g/L, L-phenylalanine 1.65 g/L, L-threonine 2.38 g/L, L-tryptophane 0.51 g/L, L-tyrosine 1.8 g/L, L-valine 2.34 g/L).
We also used a non-essential AA solution=Sigma Cat #M7145=L-alanine HCl 0.89 g/L, L-asparagine.H20 1.50 g/L, L-aspartic acid 1.33 g/L, L-glutamic acid 1.47 g/L, glycine 0.75 g/L, L-proline 1.15 g/L, L-serine 1.05 g/L.
We 5×diluted 100×stock essential AA solution. We incubated 50 μl diluted milk with 50 μl buffer (control), or the essential AA solution, or the non-essential AA solution, or Nutramigen® RTU, added 25 μl MUG to start the reaction, quenched with Na-carbonate buffer, and read fluorescence (360 nm excitation: 445 nm emission). The results are as follows:
We then analyzed inhibitory effect of each of the seven amino acids in the non-essential amino acid mixture. We diluted pooled breast milk 10× with 0.2 M NaAC buffer pH 4.5, and diluted Nutramigen® RTU (N) and Nutramigen® lipid-free supernatant (LFS) 5 fold with 0.2 M NaAC buffer pH 4.5.
We prepared stock solutions of each of the non-essential amino acids L-alanine (Ala), L-asparagine (Asn), L-aspartic acid (Asp), L-glutamic acid (Glu), glycine (Gly), L-proline (Pro), and L-Serine (Ser). All solutions were at pH 4.5. The final concentration of each amino acid in the assay was the same as when the amino acids were analyzed as a mixture. […]

[1] = cited from earlier work

remaining activity at 46 µg/mL (β-glucuronidase; 46.0 μg/ml, read-out: % (activity relative to control)): 99.3%
mean (X̄) activity (β-glucuronidase; 46.0 μg/ml): 669.6 pmole/tube/hr
SMILES: O=C(O)[C@@H]1CCCN1 [Pro, L-proline]
Activity (pmole/tube/hr) (β-glucuronidase; 46.0 μg/ml): 666.1 pmole/tube/hr and 679.7 pmole/tube/hr and 662.9 pmole/tube/hr

remaining activity at 42.2 µg/mL (β-glucuronidase; 42.2 μg/ml, read-out: % (activity relative to control)): 99.3%
mean (X̄) activity (β-glucuronidase; 42.2 μg/ml): 669.2 pmole/tube/hr
SMILES: N[C@@H](CO)C(=O)O [Ser, L-Serine]
Activity (pmole/tube/hr) (β-glucuronidase; 42.2 μg/ml): 677.7 pmole/tube/hr and 670.6 pmole/tube/hr and 659.2 pmole/tube/hr

SMILES: N[C@@H](CC(=O)O)C(=O)O [aspartic acid]
serum bilirubin level ([1]; a premature infant with neonatal hyperbilirubinemia, Kohno et al. 1963): lowered
effect on serum bilirubin concentrations ([1]; double-blind, pre-term formula-fed infants, given each of the first six days of life, Gray et al. 1971): no effect
serum bilirubin level ([1]; some cases of hyperbilirubinemia, Saito et al. 1964): decreased
